Source: the supplement of paper PMC10307832

Key:
Assay in all cases: relative viability (nuclei count vs DMSO), 5 days (fraction); higher = more cells survive
[1] = compound: CC1=CN=C(N=C1C2=CNC(=C2)C(=O)N[C@H](CO)C3=CC(=CC=C3)Cl)NC4=C(C=C(C=C4)F)Cl [VX-11e] + NC(=O)Nc1cc(-c2cccc(F)c2)sc1C(=O)N[C@H]1CCCNC1 [AZD7762] (partner 0.2 µM)
How it was run: (§1)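 Relative viability equals treated-well nuclei counts divided by vehicle-well nuclei counts. Counts came from 4× images of lung cancer cell lines grown in 1536-well plates for 5 days after pin-tool dosing on the day after seeding. Dosing used one drug alone or a fixed anchor-drug dose plus five library-drug doses (not always all listed) in √10 steps, and values are medians of duplicate plates.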

[2] = compound: CC1=CN=C(N=C1C2=CNC(=C2)C(=O)N[C@H](CO)C3=CC(=CC=C3)Cl)NC4=C(C=C(C=C4)F)Cl [VX-11e] + C[C@@H](Oc1cc(-c2cnn(C3CCNCC3)c2)cnc1N)c1c(Cl)ccc(F)c1Cl [Crizotinib] (partner 1 µM)
How it was run: as §1

[3] = compound: CC1=CN=C(N=C1C2=CNC(=C2)C(=O)N[C@H](CO)C3=CC(=CC=C3)Cl)NC4=C(C=C(C=C4)F)Cl [VX-11e] + O=C(CCCCCCC(=O)Nc1ccccc1)NO [Vorinostat] (partner 1 µM)
How it was run: as §1

[4] = compound: CC1=CN=C(N=C1C2=CNC(=C2)C(=O)N[C@H](CO)C3=CC(=CC=C3)Cl)NC4=C(C=C(C=C4)F)Cl [VX-11e] + CC(=O)c1c(C)c2cnc(Nc3ccc(N4CCNCC4)cn3)nc2n(C2CCCC2)c1=O [Palbociclib] (partner 0.5 µM)
How it was run: as §1

Cell Line	relative viability ([1]; first compound 0.04 µM)	relative viability ([1]; first compound 0.1265 µM)	relative viability ([1]; first compound 0.4 µM)	relative viability ([1]; first compound 1.265 µM)	relative viability ([1]; first compound 4 µM)	relative viability ([2]; first compound 0.04 µM)	relative viability ([2]; first compound 0.1265 µM)	relative viability ([2]; first compound 0.4 µM)	relative viability ([2]; first compound 1.265 µM)	relative viability ([2]; first compound 4 µM)	relative viability ([3]; first compound 0.04 µM)	relative viability ([3]; first compound 0.1265 µM)	relative viability ([3]; first compound 0.4 µM)	relative viability ([3]; first compound 1.265 µM)	relative viability ([3]; first compound 4 µM)	relative viability ([4]; first compound 0.04 µM)	relative viability ([4]; first compound 0.1265 µM)	relative viability ([4]; first compound 0.4 µM)	relative viability ([4]; first compound 1.265 µM)	relative viability ([4]; first compound 4 µM)
201T	0.592	0.586	0.562	0.626	0.74	1.02	0.961	1.02	0.97	0.948	0.975	0.988	0.885	0.65	0.855	0.206	0.337	0.361	0.353	0.348
A549						0.826	0.786	0.601	0.207	0.0915										
A-427	0.743	0.641	0.633	0.566	0.438	0.92	0.721	0.55	0.688	0.311	0.868	0.928	1.01	0.89	0.504	0.553	0.442	0.516	0.496	0.336
ABC-1	0.988	0.785	0.711	0.779	0.572	1.24	1.07	1.06	0.892	1.09	0.934		1.22	0.986	1.15	0.568		0.655	0.548	0.65
BEN	0.481	0.635	0.823	0.634	0.567	0.953	0.723	0.941	0.575	0.828	0.572	0.564	0.55	0.525	0.504	0.46	0.401	0.465	0.47	0.431
CAL-12T	0.639	0.641	0.575	0.533	0.544	0.697	0.632	0.633	0.543	0.394	0.634	0.724	0.649	0.84	0.285	0.391	0.433	0.331	0.141	0.116
COR-L23						0.708	0.627	0.646	0.497	0.211	0.31	0.436	0.592	0.41	0.262	0.376	0.274	0.225	0.183	0.123
COR-L 105						0.779	0.705	0.547	0.369	0.292	0.756	0.857	0.731	0.741	0.418	0.425	0.414	0.396	0.386	0.363
Calu-6						0.829	0.839	0.861	0.396	0.145										
ChaGo-K-1	0.889	0.801	0.796	0.896	0.767	1.19		1.23	1.01	1.12	0.754	0.699	0.717	0.656	0.636	0.982	0.821	0.915	0.947	0.845
EBC-1						0.204	0.182	0.163	0.198	0.18										
EKVX	0.634	0.74	0.764	0.723	0.448	1.07	0.944	0.879	0.764	0.617	0.751	0.687	0.718	0.728	0.382	0.397	0.378	0.452	0.368	0.19
EMC-BAC-2	1.2	0.96	1.13	1	0.855	0.808	0.708	0.739	0.618	0.671	0.404	0.45	1.07	0.511	0.315	0.563	0.459	0.533	0.553	0.432
EPLC-272H	0.147	0.21		0.201	0.285	0.711	0.877	0.85	0.676	0.627	0.311	0.381	0.477	0.23	0.275	0.339	0.293		0.295	0.235
H3255	0.745	0.834	0.859	0.923	0.825	0.898	0.716	0.608	0.877	0.887	0.828	0.765	0.776	0.79	0.708	0.312	0.305	0.316	0.316	0.327
HARA	0.575	0.391	0.258	0.281	0.306	1.05	0.792	1.04	0.833	0.813	0.618	0.455	0.535	0.392	0.257	0.337	0.237	0.196	0.158	0.178
HCC-15	1.41	1.18		1.11	0.769	0.904	0.747	0.64	0.449	0.264	0.96	0.752		0.534	0.26	0.838	0.627		0.445	0.249
HCC-44	1.03	0.904	1.01	1.07	1.13	0.879	0.809	0.833	0.753	0.453	1.15	1.15	1.12	1.03	0.831	0.984	0.885	0.96	1.07	1.29
HCC-78	0.58	0.814	0.725	0.371	0.527	0.351	0.307	0.353	0.285	0.285	0.479	0.42	0.358	0.482	0.405	0.481	0.359	0.466	0.501	0.431
HCC-366	0.429	0.235		0.21	0.16	0.605	0.476		0.561	0.184	0.314	0.332		0.105	0.199	0.385	0.311		0.314	0.163
HCC-827	0.162	0.222	0.212	0.349	0.21	1.01	0.953	0.888	0.958	0.839	0.924	0.846	1.03	0.918	0.761	0.533	0.46	0.461	0.541	0.301
IA-LM						0.931	0.961	0.697	0.271	0.116	1.07	0.814	0.941	0.668	0.302					

Cell Line	relative viability ([1]; first compound 0.04 µM)	relative viability ([1]; first compound 0.1265 µM)	relative viability ([1]; first compound 0.4 µM)	relative viability ([1]; first compound 1.265 µM)	relative viability ([1]; first compound 4 µM)	relative viability ([2]; first compound 0.04 µM)	relative viability ([2]; first compound 0.1265 µM)	relative viability ([2]; first compound 0.4 µM)	relative viability ([2]; first compound 1.265 µM)	relative viability ([2]; first compound 4 µM)	relative viability ([3]; first compound 0.04 µM)	relative viability ([3]; first compound 0.1265 µM)	relative viability ([3]; first compound 0.4 µM)	relative viability ([3]; first compound 1.265 µM)	relative viability ([3]; first compound 4 µM)	relative viability ([4]; first compound 0.04 µM)	relative viability ([4]; first compound 0.1265 µM)	relative viability ([4]; first compound 0.4 µM)	relative viability ([4]; first compound 1.265 µM)	relative viability ([4]; first compound 4 µM)
NCI-H520						0.773	0.748	0.741	0.914	0.59	0.646	0.875	0.682	0.698	0.518	0.202	0.254	0.232	0.244	0.292
NCI-H522	0.812	0.969	0.82	0.671	0.671						0.994	0.939	0.736	0.713	0.751	0.782	0.924	0.861	0.717	0.733
NCI-H596	1.03	0.895	1.01	0.748	0.778	0.891	1.05	1.09	0.939	0.722	0.472	0.635	0.597	0.387	0.354					
NCI-H661							0.974	1	1.16	0.934	0.784	0.798	0.718	0.794	0.747	0.375	0.406	0.348	0.402	0.379
NCI-H1299						0.994	0.879	0.956	0.84	0.47										
NCI-H1395	0.377	0.394		0.385	0.365						0.573	0.683		0.661	0.479	0.593	0.612		0.605	0.483
NCI-H1563						0.861	0.799	0.969	0.91	0.642										
NCI-H1648		0.639	0.641	0.703	0.733							0.317	0.639	0.31	0.291		0.305	0.301	0.331	0.314
NCI-H1650						1.06	0.87	0.751	0.912	0.874	0.561	0.549	0.409	0.529	0.458	0.314	0.258	0.158	0.253	0.28
NCI-H1703			0.141	0.121	0.122	0.985	0.727		0.589	0.582										
NCI-H1792		0.623		0.413	0.0597	0.956	0.954	0.915	0.982	0.52						0.684	0.586	0.645	0.541	0.319
NCI-H1793		0.361		0.516	0.191							0.618		0.569	0.257		0.255		0.28	0.232
NCI-H2009						1.07	1.04	0.933	0.565	0.364	0.794	0.604	0.638	0.791	0.233	0.177	0.171	0.187	0.158	0.0988
NCI-H2023						0.633	0.606	0.519	0.427	0.338	0.709	0.604	0.289	0.318	0.209	0.336	0.338	0.251	0.203	0.111
NCI-H2228						0.533	0.524	0.463	0.263	0.303	0.646	0.66	0.617	0.58	0.399	0.832	0.731	0.165	0.528	0.199
NCI-H2342		0.462	0.604	0.508	0.466							0.79	0.862	0.843	0.73		0.542	0.521	0.568	0.515
SK-LU-1						0.987	0.761	0.789	0.735	0.407	0.827	0.771	0.766	0.545	0.298	0.399	0.355	0.325	0.365	0.236
SK-MES-1						1.09	0.966	1.05	0.964	0.643	1.12	1.04	0.902	0.422	0.393	0.326	0.329	0.355	0.327	0.244
SW 900	0.439	0.529		0.265	0.411						0.348	0.507		0.276	0.323	0.421	0.422		0.518	0.482
SW 1573						0.871	0.789	0.743	0.793	0.451		0.956	0.408	0.432	0.466		0.342	0.351	0.259	0.15
UMC-11						0.699	0.785	0.574	0.511	0.662	0.374	0.337	0.447	0.297	0.315		0.309	0.283	0.267	0.318
